In one test the test system is siLP CX3CR1hi Mφ. Briefly: Oral gavage; frequency of siLP CX3CR1hi Mφ and CX3CR1lo cells by flow cytometry. In kind it is in vivo, mouse. The text has this:
Mice: C57BL/6, NOD/Lt, VR1^−/− (also known as TRPV1^−/−), IL27RA^−/− (also known as WSX-1^−/−) and CX3CR1^gfp/gfp, were obtained from the Jackson Laboratory (Bar Harbor, Me.). IL10-GFP reporter (Vert-X) mice were a kind gift from Dr. Roger S Thrall. All animals except NOD/Lt were on a C57BL/6 background. CX3CR1^gfp/gfp were crossed with C57BL/6 mice to obtain CX3CR1^gfp/+ mice. CX3CR1^gfp/gfp mice were backcrossed with VR1^−/− to obtain CX3CR1^gfp/+ VR1^−/− mice. IL27RA^−/− mice were backcrossed with C57BL/6 mice to obtain IL27RA^+/− mice. All animals were housed in the Center for Comparative Medicine at UConn Health. All experiments were conducted under the guidelines approved by the UConn Health Animal Care Committee.
(§1) Cell isolation: The siLP cells were isolated as per protocols known in the art. In brief, small intestines were removed from the mice, luminal contents were flushed with cold HBSS (Invitrogen, Carlsbad, Calif., USA) with 5% FBS, opened longitudinally after removing Peyer's patches and cut in to small pieces. The epithelial cells were removed by incubation with HBSS containing 1.3 mM EDTA (Invitrogen, Carlsbad, Calif., USA), 1mM HEPES (Invitrogen, Carlsbad, Calif., USA) and 0.77 mM DTT (Sigma, St. Louis, Mo., USA) at 37° C. shaking at 350 rpm. The intestinal pieces were then washed with PBS (Invitrogen, Carlsbad, Calif., USA) and digested in 100 units/ml collagenase IV (Sigma, St. Louis, Mo., USA) at 37° C. shaking at 550 rpm. Leukocytes were enriched using percoll (GE Healthcare, Piscataway, N.J., USA) gradient. The PLN, MLN and splenic cells were isolated by gently crushing the organs through 70 μm cell strainer (BD Falcon, Franklin, N.J., USA). Splenocytes were incubated with ACK lysing buffer (Invitrogen, N.Y., USA) to eliminate red blood cells for 3 mins at 37° C. and washed twice with PBS.
(§2) Flow cytometry: Fluorescently labeled antibodies used for surface staining included: CD11b (M1/70), CD11 c (N418), CX3CR1 (polyclonal), CD103 (2E7), CD64 (X54-5/7.1), MHCII (M5/114.15.2), B220 (RA3-6B2), CD3 (145-2C11), CD4 (RM4-5), CD25 (PC61) and CD62L (ME2-14) and those used for intracellular staining include: VR1 (polyclonal) IL10 (JESS-16E3), TNFα (MP6-XT22), IFNγ (XMG1.2), and IL17A (TC11-18H10.1). For detection of CB2, primary antibody against CB2 (polyclonal) was used followed by fluorescently labeled secondary antibody. All were purchased from Biolegend San Diego, Calif., USA except for TNFα (Becton Dickinson, San Jose, Calif., USA), CX3CR1 (R&D Minneapolis, Minn., USA), VR1 (Thermo Scientific, Rockford, Ill. USA), IL10 (eBioscience, San Diego Calif., USA) and CB2 (Thermo Scientific, Rockford, Ill. USA). Cells were acquired with a LSRII flow cytometer (Becton Dickinson, San Jose, Calif., USA) or sorted with a FACSAria™ machine (Becton Dickinson, San Jose, Calif., USA). Flow cytometry analysis was done with the FlowJo Version 9.7.6 (Tree Star, Ashland, Oreg,).
(§3) Oral administration of CP, AEA and PF3845: Mice were anesthetized with intraperitoneal injection of ketamine (2 mg/kg) and xylazine (0.1 mg/kg). Vehicle control (tween 80 (5%), […] in PBS) or CP (10 μg) (ENZO Life Sciences, Farmingdale, N.Y., USA) or AEA (250 μg, 400 μg or 500 μg) (Cayman Chemical Co., Ann Arbor, Mich., USA) or PF3845 (5 mg/kg) (Cayman Chemical Co., Ann Arbor, Mich., USA) were gavaged in 100 μl volume using an 18-gauge feeding needle (Popper & Sons, New Hyde Park, N.Y., USA).

In test [1] the test system is siLP CX3CR1hi Mφ and CD103+ DCs. The test is described as follows: Oral gavage; IL10, TNF-α and CX3CR1 expression in siLP CX3CR1hi Mφ and CD103+ DCs by flow cytometry. Type of test: in vivo, mouse. The protocol: as §1, §2
Intracellular cytokine staining: Cells were incubated with PMA (50 ng/ml) (Sigma Co., St. Luis, Mo., USA) plus ionomycin (1 μg/ml) (Sigma Co., St. Luis, Mo., USA) in the presence of golgi plug (BD Biosciences, San Jose, USA) for 5 hours at 37° C. followed by surface staining with fluorochrome conjugated antibodies and then intracellular staining of IL10, TNFα, IFNγ, and IL17A was performed by fixation and permeabilization according to manufacturer's protocol BD Cytofix/Cytoperm™ kit. […]

Test [2] deals with naïve splenic CD4+ T cells. Briefly: In vitro co-culture of siLP MNPs sorted from treated mice with naïve splenic CD4+ T cells. In kind it is cell-based, mouse. The protocol: (§4) Intracellular cytokine staining: Cells were incubated with PMA (50 ng/ml) (Sigma Co., St. Luis, Mo., USA) plus ionomycin (1 μg/ml) (Sigma Co., St. Luis, Mo., USA) in the presence of golgi plug (BD Biosciences, San Jose, USA) for 5 hours at 37° C. followed by surface staining with fluorochrome conjugated antibodies and then intracellular staining of IL10, TNFα, IFNγ, and IL17A was performed by fixation and permeabilization according to manufacturer's protocol BD Cytofix/Cytoperm™ kit.
In vitro co-culture assays: For in vitro co-culture assays, siLP MNPs were sorted as described previously from C57BL/6 or CX3CR1^gfp/+ mice. MNPs (10×10^4) were cocultured for 4 days with splenic naïve CD25^− CD62L^hi CD4^±T cells sorted from untreated C57BL/6 or IL27Ra^−/− mice at 1:1 ratios in the presence of soluble αCD3 mAb (145-2C11) (0.5 μg/ml) in U-bottomed 96 well plates. The cultured cells were maintained in RPMI 1640 medium supplemented with 5% fetal bovine serum, 1 mM sodium pyruvate, 1 mM non-essential amino acids, 2 mM L-gluatamine, 50 units/ml streptomycin, and 50 μM Beta-mercaptoethanol, all purchased from Gibco/Invitrogen (Carlsbad, Calif., USA). After 4 days, the cultured cells were washed with PBS and surface stained with CD4 and intracellular staining was performed for IL10 and IFN-γ.
as §3

The subject of another test is IL27-p28. The test is described as follows: qPCR of IL27-p28 in sorted siLP MNPs after oral gavage. The following applies: two days after treatment, with respect to vehicle. Type of test: in vivo, mouse. The protocol: as §3
qPCR: Total RNA was isolated from sorted siLP MNP using the RNeasy® Micro kit Oaten, Chatsworth, Calif., USA). cDNA was made from total RNA using iSCRIPT™ cDNA synthesis kit (Bio-Rad Laboratories, Hercules, Calif.). IL-27 gene expression was measured using IL-27 TactMan® Gene Expression Assay (Life technologies, Grand Island, N.Y., USA) and CFX96™ Real-Time PCR detection system (Bio-Rad Laboratories, Hercules, Calif., USA). Gene expression was normalized to GAPDH.

Test [3] concerns CX3CR1+ Mφ in PLN and MLN. The test is described as follows: Oral gavage; frequency of CX3CR1+ Mφ in PLN and MLN by flow cytometry. In kind it is in vivo, mouse. The protocol:
as §1
as §2, with “Flow cytometry analysis was done with the FlowJo Version 9.7.6 (Tree Star, Ashland, Oreg,).” left out

Test [4] relates to CD4+IL10+IFN-γ+ Tr1 cells. Briefly: Oral gavage; frequency of CD4+IL10+IFN-γ+ Tr1 cells and IL17A+ CD4+ T cells in siLP and PLN. In kind it is in vivo, mouse. The protocol: as §1, §2, §4, §3
We now tested if CP can elicit such regulatory T cells in vivo. NOD mice were orally gavaged twice at 9th and 10th week of age with 10 μg CP or vehicle as a control; two weeks post CP treatment, siLP and the PLN were harvested and the frequency of CD4+IL10+IFN-γ+ Tr1 cells was measured.

Test [5] concerns Type 1 Diabetes in NOD mice. The test is described as follows: Adoptive transfer of CD4+ T cells from treated NOD donors; diabetes development by urine glucose. Type of test: in vivo, mouse. The following applies: CD4+ T cells from PLN and spleen of treated female NOD donors, vs vehicle elicited cells. The protocol: Adoptive transfer: Female NOD mice were orally gavaged with CP 10 μg or vehicle at 9 and 10 weeks of age as described earlier. 2 weeks later CD4^+ T cells were sorted from the PLN and spleen of the treated mice. All recipient female NOD mice were sub-lethally irradiated. Four hours after irradiation the recipient mice received […] diabetogenic splenocytes. 7×10^6 sorted CD4^+ T cells were then transferred to naïve NOD female mice by retro-orbital injection at 11 weeks of age. Development of diabetes was monitored by measuring urine glucose using Diastix® reagent strips (Bayer, Elkhart, Ind., USA). Mice were considered diabetic after two consecutive readings of >1000 mg/dl of urine glucose.

[6] abbreviates: CX3CR1gfp/+ mice, oral gavage, 24 hours after feeding, vs vehicle.
[7] abbreviates: NOD mice, 10 μg at 9th and 10th week, two weeks post treatment.

The results in this text go back to patent publication US20170112787A1, “METHODS OF TREATMENT OF INFLAMMATION OF THE GUT” (THE UNIVERSITY OF CONNECTICUT, priority 2015, published 2017).

With `COc1cc(CNC(=O)CCCC/C=C/C(C)C)ccc1O` [CP, Capsaicin], in the test with siLP CX3CR1hi Mφ (CX3CR1gfp/+ mice, oral gavage 10 μg, 24 hours, vs vehicle), the “frequency and number of CX3CR1lo cells in siLP” value was “did not affect the frequency and number”. Further, the “frequency of CX3CR1hi Mφ in siLP” value in the test on siLP CX3CR1hi Mφ (setting [6]) is “significantly increased the frequency”; in the test with siLP CX3CR1hi Mφ (CX3CR1gfp/gfp mice (lack functional CX3CR1), oral gavage 10 μg, 24 h) it was “no changes in the frequency”; in the test on siLP CX3CR1hi Mφ (NOD mice, oral administration), “increases the frequency”. Moreover, the “production of TNF-α in CX3CR1hi Mφ” value in test [1] (24 hours after treatment, vs controls) was “decreased”. Moreover, in test [1] (CX3CR1gfp/+ mice, vs vehicle), the “expression of CX3CR1 on CX3CR1hi Mφ” value is “significantly increased expression of CX3CR1”. In test [1] (IL10-GFP reporter mice, oral gavage 10 μg, 24 hrs), the “IL10 production in CD103+ DCs” value was “modest but statistically significant increase in IL10 production”. Moreover, in test [1] (IL10 GFP-reporter mice, 24 hours after treatment, vs controls), the “production of IL10 in CX3CR1hi Mφ” value is given as “significant increase in the production of IL10”. The “expression of IL10 in CD4+ T cells” value in test [2] (MNPs sorted 24 hours after treatment, co-culture 1:1, four days) was “significant increase in the expression of IL10”. Besides, the “induction of CD4+ T cells expressing both IL10 and IFN-γ (Tr1)” value in test [2] (MNPs sorted 24 hours after treatment, co-culture 1:1, four days, IL27RA+/+ T cells) is “significant increase in the induction”. In test [2] (T cells derived from IL27RA−/− mice), the “increase in frequency of CD4+ IL10+ IFN-γ+ T cells” value was “completely abrogated”. The “level of IL27-p28 in the MNPs” value in the test with IL27-p28 is reported as “five fold increase”. In addition, in test [3] (3 days after feeding 10 μg), the “frequency of CX3CR1+ Mφ in the MLN” value was “but not in MLN”. The “frequency of CX3CR1+ Mφ in the PLN” value in test [3] (3 days after feeding 10 μg) is “significant VR1-dependent increase in the frequency”; in test [3] (NOD mice, 3 days post oral gavage 10 μg) it was “significant increase in the frequency”. Further, in test [4] (CX3CR1gfp/gfp mice (no functional CX3CR1)), the “elicitation of Tr1 cells in PLN” value is recorded as “does not elicit Tr1 cells”. Besides, the “Tr1 cell elicitation by IL27RA genotype” value in test [4] (IL27RA −/−, +/− and +/+ mice) is on record as “gene dose-dependence of Tr1 cell elicitation”. Moreover, in test [4] (IL27RA+/+ vs IL27RA−/− mice, PLN), the “dependence of elicited Tr1 cells on IL27 signaling” value is recorded as “require the presence of functional IL27-IL27R signaling”. Also, in test [4] (setting [7]), the “frequency of Tr1 cells in PLN” value is “expansion of Tr1 cells”. The “frequency of Tr1 cells in siLP” value in test [4] (setting [7]) is reported as “expansion of Tr1 cells”. Further, the “frequency of IL17A+ CD4+ T cells in the PLN” value in test [4] (NOD mice, oral administration) is “significant decrease in the frequency”. The “protection from T1D by transferred CD4+ T cells” value in test [5] was “significantly higher protection from T1D”.

`O=C(Nc1cccnc1)N1CCC(Cc2cccc(Oc3ccc(C(F)(F)F)cn3)c2)CC1` [PF3845]: in the test with siLP CX3CR1hi Mφ (setting [6]), the “frequency of CX3CR1hi Mφ in siLP” value is “increase in the frequency”.
